Source: patent US11926614B2, “1,2,4-triazole derivatives as tankyrase inhibitors” (priority 2018, dated 2024)
Where two headings read alike, the source gives them in different places.

How the values were obtained:
[1] = target: TNKS2 (Homo sapiens (Human), UniProt Q9H2K2); assay: Biochemical IC50 TNKS2; conditions: read-out: Biochemical IC50 TNKS2
Excerpt: (§1) XLfit (idbs) was used to determine the IC50-values in inhibition experiments. The following formula was chosen to fit the data points (Langmuir Binding Isotherm): fit=((A+(B*x))+4(C−B)*(1−exp((−1*D)*x)))/D)), res=(y−fit)

[2] = test system: HEK293; assay: Cellular IC50 HEK293; type: cell-based; conditions: Homo sapiens, read-out: Cellular IC50 HEK293
Excerpt: as §1

TNKS2, sequence (Q9H2K2 whole entry): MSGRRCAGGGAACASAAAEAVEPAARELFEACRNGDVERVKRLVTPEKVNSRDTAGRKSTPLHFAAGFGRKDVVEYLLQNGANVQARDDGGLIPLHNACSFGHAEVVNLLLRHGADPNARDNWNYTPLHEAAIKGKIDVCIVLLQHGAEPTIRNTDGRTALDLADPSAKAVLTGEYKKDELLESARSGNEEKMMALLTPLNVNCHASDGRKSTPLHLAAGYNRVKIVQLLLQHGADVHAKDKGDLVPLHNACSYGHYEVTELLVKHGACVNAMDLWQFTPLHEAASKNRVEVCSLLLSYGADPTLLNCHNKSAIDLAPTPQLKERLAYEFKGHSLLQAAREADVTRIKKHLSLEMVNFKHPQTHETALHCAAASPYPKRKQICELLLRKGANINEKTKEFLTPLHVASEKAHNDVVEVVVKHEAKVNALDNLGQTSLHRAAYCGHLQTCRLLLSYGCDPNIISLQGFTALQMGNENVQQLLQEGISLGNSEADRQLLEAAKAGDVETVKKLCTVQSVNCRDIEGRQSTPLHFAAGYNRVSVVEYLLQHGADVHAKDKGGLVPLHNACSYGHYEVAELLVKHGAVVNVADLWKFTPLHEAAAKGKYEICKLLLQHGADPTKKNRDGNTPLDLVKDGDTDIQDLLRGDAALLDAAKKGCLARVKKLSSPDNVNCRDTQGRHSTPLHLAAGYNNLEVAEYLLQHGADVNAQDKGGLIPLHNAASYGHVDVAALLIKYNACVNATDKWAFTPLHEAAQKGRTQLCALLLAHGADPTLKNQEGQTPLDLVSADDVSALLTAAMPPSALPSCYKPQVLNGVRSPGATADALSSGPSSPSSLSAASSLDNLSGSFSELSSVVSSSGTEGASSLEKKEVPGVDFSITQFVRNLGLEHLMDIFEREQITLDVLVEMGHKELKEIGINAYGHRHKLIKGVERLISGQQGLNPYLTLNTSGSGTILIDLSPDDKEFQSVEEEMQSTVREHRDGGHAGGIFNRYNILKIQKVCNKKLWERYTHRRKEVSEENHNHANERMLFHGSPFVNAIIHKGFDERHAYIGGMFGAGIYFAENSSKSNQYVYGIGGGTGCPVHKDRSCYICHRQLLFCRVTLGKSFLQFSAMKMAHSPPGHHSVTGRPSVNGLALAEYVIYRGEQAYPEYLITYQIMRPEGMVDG

O=C(N[C@H]1C[C@H](c2nnc(-c3nccs3)n2-c2ccccc2)C1)c1ccccn1 [Example 32, N-((1r,3r)-3-(4-phenyl-5-(thiazol-2-yl)-4H-1,2,4-triazol-3-yl)cyclobutyl)picolinamide]
IC50 [1]: 49 nM
IC50 ([2]; HEK293, HEK293): 229 nM

O=C(N[C@H]1C[C@H](c2nnc(-c3ccncn3)n2-c2ccccc2Cl)C1)c1ccccn1 [Example 10, N-((1S,3r)-3-(4-(2-chlorophenyl)-5-(pyrimidin-4-yl)-4H-1,2,4-triazol-3-yl)cyclobutyl)picolinamide]
IC50 [1]: 1.5 nM
IC50 ([2]; HEK293): 0.2 nM

CCOc1ccc(-c2nnc([C@H]3C[C@H](NC(=O)c4cccc(C(C)O)n4)C3)n2-c2ccccc2F)nc1 (stereo partly drawn) [Example 128, N-((1R,3r)-3-(5-(5-ethoxypyridin-2-yl)-4-(2-fluorophenyl)-4H-1,2,4-triazol-3-yl)cyclobutyl)-6-(1-hydroxyethyl)picolinamide]
IC50 [1]: 37 nM
IC50 ([2]; HEK293, HEK293): 230 nM

CCOc1ccc(-c2nnc([C@H]3C[C@H](NC(=O)c4ccc5cccnc5n4)C3)n2-c2ccccc2F)nc1 [Example 147, N-((1S,3r)-3-(5-(5-ethoxypyridin-2-yl)-4-(2-fluorophenyl)-4H-1,2,4-triazol-3-yl)cyclobutyl)-1,8-naphthyridine-2-carboxamide]
IC50 [1]: 19 nM
IC50 ([2]; HEK293, HEK293): 78 nM

CCOc1ccc(-c2nnc([C@H]3C[C@H](NC(=O)c4ccnc5cccnc45)C3)n2-c2ccccc2F)nc1 [Example 55, N-((1S,3r)-3-(5-(5-ethoxypyridin-2-yl)-4-(2-fluorophenyl)-4H-1,2,4-triazol-3-yl)cyclobutyl)-1,5-naphthyridine-4-carboxamide]
IC50 [1]: 2 nM
IC50 ([2]; HEK293): 0.814 nM
